Experiment [1] deals with T1, SFRP-1 (Homo sapiens, UniProt Q8N474).
T1 sequence (Q8N474 32-314): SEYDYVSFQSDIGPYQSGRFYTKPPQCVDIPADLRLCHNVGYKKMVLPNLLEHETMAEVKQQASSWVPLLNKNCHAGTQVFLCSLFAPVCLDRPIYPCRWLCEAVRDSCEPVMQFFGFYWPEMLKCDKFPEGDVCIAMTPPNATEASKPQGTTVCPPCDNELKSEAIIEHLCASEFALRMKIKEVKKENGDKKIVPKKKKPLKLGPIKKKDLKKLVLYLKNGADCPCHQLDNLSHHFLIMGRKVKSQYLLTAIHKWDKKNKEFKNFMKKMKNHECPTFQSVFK
Put plainly: Fluorescence polarization binding assay (competitive displacement of a probe compound from SFRP-1).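 Also: test compound competes with a fluorescent probe held by SFRP-1, seen as a drop in probe anisotropy after incubation in darkness, with anisotropy as function of rising compound dose.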 Conditions: fluorescence anisotropy, 45 nM SFRP-1, 20 nM probe. On the technique in general: In fluorescence polarisation assays a small probe gives low polarisation when free and higher when bound to something large.

Experiment [2] has as its target T1, SFRP-1. Put plainly: Cell-based assay for in vitro measurement of SFRP-1/SARP2 antagonist activity (U2OS cells co-transfected with 16x TCF-tk-Luciferase reporter, Wnt and hSFRP-1).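 As to all read-outs here: U2OS cells co-transfected with a TCF-tk luciferase reporter, a Wnt vector, hSFRP-1 or empty vector and CMV-βgal, luciferase luminescence read in cell lysates alongside βgal activity.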 Conditions: for fold induction at 10 µM: U2OS, read-out: Fold Induction with SFRP-1, U2OS cells, single dose 10 μM, luciferase reporter, fold induction over SFRP-1 control. On the technique in general: A reporter such as luciferase makes a cellular process visible.

SMILES strings stand for the structures. Counter-ions that a name gives are not always drawn.

A word on the IC50: it is the point on the concentration scale where inhibition reaches its midpoint. The low end stands for higher potency, the high end for lower potency. As usually defined, the EC50 is the concentration giving half of the maximal effect. Lower therefore signals greater potency.

Take `CC(C)c1ccc(S(=O)(=O)c2ccc(F)cc2)cc1S(=O)(=O)NCC(O)c1cccnc1` (stereo not drawn) [Example 731, 5-[(4-fluorophenyl)sulfonyl]-N-(2-hydroxy-2-pyridin-3-ylethyl)-2-isopropylbenzenesulfonamide]: the IC50 on SFRP-1 [1] amounted to 1900 nM. In addition, on SFRP-1 [2], the fold induction at 10 µM came out at 3.3.
The molecule `CC(C)c1ccc(S(=O)(=O)c2ccc(F)cc2)cc1S(=O)(=O)NCC(O)c1ccccc1` (stereo not drawn) [Example 732, 5-[(4-fluorophenyl)sulfonyl]-N-(2-hydroxy-2-phenylethyl)-2-isopropylbenzenesulfonamide] yielded a half-inhibitory concentration (IC50) at SFRP-1 [1] of 1100 nM. Further, the fold induction at 10 µM on SFRP-1 [2] came out at 4.2.
On the same counts, the results for `CC(CO)NS(=O)(=O)c1cc(S(=O)(=O)c2ccc(F)cc2)ccc1C(C)C` (stereo not drawn) [Example 733, 5-[(4-fluorophenyl)sulfonyl]-N-(2-hydroxy-1-methylethyl)-2-isopropylbenzenesulfonamide] are 10000 nM and 2.5.
`CC(C)c1ccc(S(=O)(=O)c2ccccc2)cc1S(=O)(=O)NCC(O)c1cccnc1` (stereo not drawn) [Example 735, N-(2-hydroxy-2-pyridin-3-ylethyl)-2-isopropyl-5-(phenylsulfonyl)benzenesulfonamide]: the IC50 on SFRP-1 [1] worked out at 900 nM. Besides, the fold induction at 10 µM on SFRP-1 [2] was 4.1.
On to `CC(C)c1ccc(S(=O)(=O)c2ccccc2)cc1S(=O)(=O)NCC(O)c1ccccc1` (stereo not drawn) [Example 736, N-(2-hydroxy-2-phenylethyl)-2-isopropyl-5-(phenylsulfonyl)benzenesulfonamide], for which the IC50 at SFRP-1 [1] is 400 nM. Also, at SFRP-1 [2], the EC50 was 1760 nM and the fold induction at 10 µM was determined as 5.
`CCC(O)CNS(=O)(=O)c1cc(S(=O)(=O)c2ccc(F)cc2)ccc1C(C)C` (stereo not drawn) [Example 738, 5-[(4-fluorophenyl)sulfonyl]-N-(2-hydroxybutyl)-2-isopropylbenzenesulfonamide] came in with an IC50 on SFRP-1 [1] of 7000 nM. The fold induction at 10 µM at SFRP-1 [2] was 2.9.
`O=S(=O)(NCCn1ccnc1)c1cc(S(=O)(=O)c2ccccc2)ccc1C(F)(F)F` [Example 739, N-[2-(1H-Imidazol-1-yl)ethyl]-5-(phenylsulfonyl)-2-(trifluoromethyl)benzenesulfonamide] registered an IC50 on SFRP-1 [1] of 180 nM. Further, on SFRP-1 [2], a half-maximal effect (EC50) was put at 720 nM and the fold induction at 10 µM was determined as 5.1.
In turn, `Cc1ccc(S(=O)(=O)c2ccc(F)cc2)cc1S(=O)(=O)NCC(O)c1cccnc1` (stereo not drawn) [Example 740, 5-[(4-fluorophenyl)sulfonyl]-N-(2-hydroxy-2-pyridin-3-ylethyl)-2-methylbenzenesulfonamide] had a 50% inhibitory concentration (IC50) at SFRP-1 [1] of 6000 nM. Further, the fold induction at 10 µM on SFRP-1 [2] was found to be 3.3.
The molecule `O=S(=O)(NCC(O)c1cccnc1)c1cc(S(=O)(=O)c2ccccc2)ccc1C(F)(F)F` (stereo not drawn) [Example 741, N-(2-hydroxy-2-pyridin-3-ylethyl)-5-(phenylsulfonyl)-2-(trifluoromethyl)benzenesulfonamide] registered an IC50 on SFRP-1 [1] of 300 nM. Besides, on SFRP-1 [2], the EC50 was found to be 1000 nM and the fold induction at 10 µM was 4.8.
Molecule `CC(C)(C)OC(=O)NCCNS(=O)(=O)c1cc(S(=O)(=O)c2ccccc2)ccc1C(F)(F)F` [Example 742, tert-Butyl[2-({[5-(phenylsulfonyl)-2-(trifluoromethyl)phenyl]sulfonyl}amino)ethyl]carbamate] yielded a 50% inhibitory concentration (IC50) on SFRP-1 [1] of 280 nM. Also, the fold induction at 10 µM on SFRP-1 [2] is 2.4.
`O=S(=O)(NC1CCOCC1)c1cc(S(=O)(=O)c2cccc(O)c2)ccc1C(F)(F)F` [Example 744, 5-[(3-hydroxyphenyl)sulfonyl]-N-(tetrahydro-2H-pyran-4-yl)-2-(trifluoromethyl)benzenesulfonamide]: at SFRP-1 [1], the IC50 was found to be 200 nM. On SFRP-1 [2], a half-maximal response (EC50) required 852 nM and the fold induction at 10 µM came out at 3.1.
The molecule `COc1cccc(S(=O)(=O)c2ccc(C(F)(F)F)c(S(=O)(=O)NCCC#N)c2)c1` [Example 745, N-(2-cyanoethyl)-5-[(3-methoxyphenyl)sulfonyl]-2-(trifluoromethyl)benzenesulfonamide] came in with an IC50 at SFRP-1 [1] of 400 nM. Besides, on SFRP-1 [2], the EC50 was determined as 631 nM and the fold induction at 10 µM was determined as 4.5.
Molecule `COc1cccc(S(=O)(=O)c2ccc(C(F)(F)F)c(S(=O)(=O)NC3CCN(C(=O)c4ccc(C(C)(C)C)cc4)CC3)c2)c1` [Example 746, N-[1-(4-tert-butylbenzoyl)piperidin-4-yl]-5-[(3-methoxyphenyl)sulfonyl]-2-(trifluoromethyl)benzenesulfonamide] showed an IC50 on SFRP-1 [1] of 300 nM. Moreover, at SFRP-1 [2], the response was half-maximal at 453 nM (EC50) and the fold induction at 10 µM is 5.
As for `COc1cccc(S(=O)(=O)c2ccc(C(F)(F)F)c(S(=O)(=O)NCCc3cccnc3)c2)c1` [Example 747, 5-[(3-methoxyphenyl)sulfonyl]-N-(2-pyridin-3-ylethyl)-2-(trifluoromethyl)benzenesulfonamide], on SFRP-1 [1], the half-maximal inhibitory concentration (IC50) was determined as 90 nM. For the same molecule, at SFRP-1 [2], a half-maximal response (EC50) required 779 nM and the fold induction at 10 µM was 5.7.
`O=S(=O)(NC1CCN(Cc2ccc(C(F)(F)F)cc2)CC1)c1cc(S(=O)(=O)c2ccccc2)ccc1C(F)(F)F` [Example 749, 5-(phenylsulfonyl)-2-(trifluoromethyl)-N-{1-[4-(trifluoromethyl)benzyl]piperidin-4-yl}benzenesulfonamide]: on SFRP-1 [1], the concentration for half-maximal inhibition (IC50) is 3000 nM. The fold induction at 10 µM at SFRP-1 [2] came to 1.7.
As to `N#CCN1CCC(NS(=O)(=O)c2cc(S(=O)(=O)c3ccccc3)ccc2C(F)(F)F)CC1` [Example 750, N-[1-(cyanomethyl)piperidin-4-yl]-5-(phenylsulfonyl)-2-(trifluoromethyl)benzenesulfonamide], the IC50 on SFRP-1 [1] stood at 200 nM. For the same molecule, at SFRP-1 [2], the EC50 stood at 937 nM and the fold induction at 10 µM was found to be 4.2.
In the case of `O=C(CN1CCC(NS(=O)(=O)c2cc(S(=O)(=O)c3ccccc3)ccc2C(F)(F)F)CC1)c1ccccc1` [Example 751, N-[1-(2-oxo-2-phenylethyl)piperidin-4-yl]-5-(phenylsulfonyl)-2-(trifluoromethyl)benzenesulfonamide], on SFRP-1 [1], the half-inhibitory concentration (IC50) worked out at 300 nM. On SFRP-1 [2], the EC50 turned out to be 4850 nM and the fold induction at 10 µM came to 3.1.
As for `N#CCCNS(=O)(=O)c1cc(S(=O)(=O)c2cccc(Cl)c2)ccc1C(F)(F)F` [Example 752, 5-[(3-chlorophenyl)sulfonyl]-N-(2-cyanoethyl)-2-(trifluoromethyl)benzenesulfonamide], the IC50 on SFRP-1 [1] was 400 nM. Also, at SFRP-1 [2], the EC50 was 1090 nM and the fold induction at 10 µM was found to be 3.8.
In turn, `CC(C)(C)c1ccc(C(=O)N2CCC(NS(=O)(=O)c3cc(S(=O)(=O)c4cccc(Cl)c4)ccc3C(F)(F)F)CC2)cc1` [Example 753, N-[1-(4-tert-butylbenzoyl)piperidin-4-yl]-5-[(3-chlorophenyl)sulfonyl]-2-(trifluoromethyl)benzenesulfonamide] registered an IC50 at SFRP-1 [1] of 700 nM. For the same molecule, the fold induction at 10 µM on SFRP-1 [2] was 3.8.
`O=S(=O)(NC1CCOCC1)c1cc(S(=O)(=O)c2cccc(Cl)c2)ccc1C(F)(F)F` [Example 754, 5-[(3-chlorophenyl)sulfonyl]-N-(tetrahydro-2H-pyran-4-yl)-2-(trifluoromethyl)benzenesulfonamide]: the IC50 at SFRP-1 [1] came to 400 nM. Moreover, at SFRP-1 [2], the EC50 stood at 1980 nM and the fold induction at 10 µM stood at 2.5.
For `O=S(=O)(NCCc1cccnc1)c1cc(S(=O)(=O)c2cccc(Cl)c2)ccc1C(F)(F)F` [Example 755, 5-[(3-chlorophenyl)sulfonyl]-N-(2-pyridin-3-ylethyl)-2-(trifluoromethyl)benzenesulfonamide], the IC50 at SFRP-1 [1] is 160 nM. Further, on SFRP-1 [2], the EC50 is 1430 nM and the fold induction at 10 µM came out at 3.8.
As for `O=S(=O)(NCC(O)c1ccccn1)c1cc(S(=O)(=O)c2ccccc2)ccc1C(F)(F)F` (stereo not drawn) [Example 757, N-(2-hydroxy-2-pyridin-2-ylethyl)-5-(phenylsulfonyl)-2-(trifluoromethyl)benzenesulfonamide], the half-inhibitory concentration (IC50) on SFRP-1 [1] was determined as 1100 nM. The fold induction at 10 µM at SFRP-1 [2] came out at 3.1.
With `O=C(c1ccccc1OC(F)(F)F)N1CCC(NS(=O)(=O)c2cc(S(=O)(=O)c3ccccc3)ccc2C(F)(F)F)CC1` [Example 758, 5-(phenylsulfonyl)-N-{1-[2-(trifluoromethoxy)benzoyl]piperidin-4-yl}-2-(trifluoromethyl)benzenesulfonamide], on SFRP-1 [1], the IC50 was 300 nM. On SFRP-1 [2], it took 582 nM to reach a half-maximal effect (EC50) and the fold induction at 10 µM worked out at 3.4.
Molecule `CC(C)(C)c1ccc(NC(=O)N2CCC(NS(=O)(=O)c3cc(S(=O)(=O)c4ccccc4)ccc3C(F)(F)F)CC2)cc1` [Example 759, N-(4-tert-butylphenyl)-4-({[5-(phenylsulfonyl)-2-(trifluoromethyl)phenyl]sulfonyl}amino)piperidine-1-carboxamide] came in with an IC50 at SFRP-1 [1] of 1600 nM. The fold induction at 10 µM on SFRP-1 [2] came out at 3.5.
With `CC(C)(C)c1ccc(C(=O)N2CCC(NS(=O)(=O)c3cc(S(=O)(=O)c4ccccc4)ccc3C(F)(F)F)C2)cc1` (stereo not drawn) [Example 761, N-[1-(4-tert-butylbenzoyl)pyrrolidin-3-yl]-5-(phenylsulfonyl)-2-(trifluoromethyl)benzenesulfonamide], the IC50 at SFRP-1 [1] came to 600 nM. In addition, on SFRP-1 [2], the EC50 came to 1570 nM and the fold induction at 10 µM came to 3.2.
With `NCCNS(=O)(=O)c1cc(S(=O)(=O)c2ccccc2)ccc1C(F)(F)F` [Example 762, N-(2-Aminoethyl)-5-(phenylsulfonyl)-2-(trifluoromethyl)benzenesulfonamide hydrochloride], at SFRP-1 [1], the IC50 amounted to 2100 nM. In addition, the fold induction at 10 µM at SFRP-1 [2] stood at 2.2.

These data come from US20060276464A1, “Diarylsulfone sulfonamides and use thereof” (Wyeth, priority 2005, published 2006).
